Assay results taken from patent publication US20040071656A1, “Modulation of heat-shock-protein-based immunotherapies” (priority 2001, published 2004).

What was measured:
ANA1 cells = assay: Binding of biotinylated Hsp70 / Hsp70-peptide C-biotin to ANA1 macrophage cells, fluorescence microscopy; format: cell-based, murine; conditions: 100 nM biotinylated protein
Procedure: (§1) Cell culture and fluorescence microscopy. The murine macrophage cell line ANA1 was kindly provided by H. Wagner (Munich, Germany). ANA-1 cells were cultured in VLE-RPMI 1640 (Biochrom), supplemented with 10% FCS, 2 mM L-glutamine and antibiotics. For fluorescence microscopy, ANA1 cells were either stimulated with LPS (20 μg/ml, Sigma, Germany), or kept in an LPS-free medium (mock treatment) for 7 h. After stimulation, cells were harvested and incubated with 100 nM biotinylated Hsp70, biotinylated GST, or Hsp70/peptide C-biotin complex for 30 min at 0° C. in VLE-RPMI 1640. After incubation cells were processed for staining with streptavidin-TRITC (Sigma, Germany), fixed with paraformaldehyde and analyzed by fluorescence microscopy (Axiovert 35, Zeiss) as described (Sondermann et al., 2000). […] Twenty-four h post-transfection cells were incubated with 250 nM biotinylated Hsp70, biotinylated GST or Hsp70/peptide C-biotin complex for 30 min at 0° C. in DMEM, fixed, stained with streptavidin-TRITC (Sigma, Germany), and analyzed by fluorescence microscopy as described (Sondermann et al., 2000, idem). […] Stably transfected cell lines were analyzed by immunoblotting for CD40 expression using an anti-CD40 antibody (CSA180, Stressgen). […]
Details for FIG. 1. […] After 30 min at 4° C. cells were washed, incubated with TRITC-labeled streptavidin, washed again, and processed for fluorescence microscopy. […]

human CD40 = biological target: T1, human CD40 (Homo sapiens, UniProt P25942); assay: Binding to Cos-7 cells transiently transfected with human CD40 cDNA, fluorescence microscopy; format: cell-based; conditions: 250 nM biotinylated protein, 30 min at 0° C.
T1 construct: CD40 full-length cDNA was cloned by PCR; expressed in transfected cells
T1 sequence (P25942 21-277): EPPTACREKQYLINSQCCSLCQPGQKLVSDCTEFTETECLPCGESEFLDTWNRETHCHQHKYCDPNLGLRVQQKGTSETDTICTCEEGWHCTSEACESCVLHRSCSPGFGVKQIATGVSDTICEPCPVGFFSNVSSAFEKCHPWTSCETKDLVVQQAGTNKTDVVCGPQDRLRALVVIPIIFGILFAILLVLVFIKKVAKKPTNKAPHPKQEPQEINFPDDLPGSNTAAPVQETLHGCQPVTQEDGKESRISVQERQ
Procedure: as §1
Mock-treated and LPS-stimulated ANA-1 cells were analyzed for their expression of CD40. […]

With “Hsp70: Recombinant human heat shock protein 70, expressed and purified as His-tagged protein” the “binding to LPS-stimulated ANA-1 cells” value (ANA1 cells; LPS 20 μg/ml 7 h) was “significant increase in binding”, the “binding to unstimulated ANA-1 cells” value (ANA1 cells; mock treated cells, 30 min, streptavidin-TRITC) was “weak but clearly detectable binding” and the “binding to CD40-transfected Cos-7 cells” value (human CD40) was “bound to the surface of transfected cells but not to untransfected cells”.
